Literature values in patent US9119775B2, “Use of pilocarpine for hypoptyalism treatment” (priority 2004, dated 2015).

What was measured:
[1] = system: salivary glands
[2] = system: salivary glands; settings: according to the known pharmacokinetic studies

CC[C@@H]1C(=O)OC[C@@H]1Cc1cncn1C [pilocarpine]
delay of first action of the pilocarpine after intake ([1]; oral method, after intake): 0.45 to 1 h | undesirable secondary effects ([1]; oral tablets, 15 mg per day up to 30 mg per day, conducted over several weeks): nausea, excessive sweating, sensations of dizziness, hot flashes or asthenias | duration of the effects of stimulation [2]: 4 to 8 h
